Source: US8580957B2, “Thetrahydroquinolines derivatives as bromodomain inhibitors” (GlaxoSmithKline LLC, priority 2009, dated 2013)
Counter-ions that a name gives are not always drawn.

Each compound was assayed on LPS induced IL-6 secretion from whole blood (assay: Measurement of LPS Induced IL-6 Secretion from Whole Blood). Conditions: LPS 200 ng/ml, 24 hours, read-out: pIC50 (IL-6 levels) (converted).
Format: cell-based
Description: Measurement of LPS Induced IL-6 Secretion from Whole Blood
Activation of monocytic cells by agonists of toll-like receptors such as bacterial lipopolysaccharide (LPS) results in production of key inflammatory mediators including IL-6. Such pathways are widely considered to be central to the pathophysiology of a range of auto-immune and inflammatory disorders.
Compounds to be tested are diluted to give a range of appropriate concentrations of which 1 ul of the diluted stocks is added to a 96 well plate. Following addition of whole blood (130 ul) the plates are incubated at 37 degrees (5% CO2) for 30 min before the addition of 10 ul of 2.8 ug/ml LPS, diluted in complete RPMI 1640 (final concentration=200 ng/ml), to give a total volume of 140 ul per well. After further incubation for 24 hours at 37 degrees, 140 ul of PBS are added to each well. The plates are sealed, shaken for 10 minutes and then centrifuged (2500 rpm×10 min). 100 ul of the supernatant are removed and IL-6 levels assayed by immunoassay (typically by MesoScale Discovery technology) either immediately or following storage at −20 degrees. Concentration response curves for each compound was generated from the data and an IC50 value was calculated.
With CNCCn1cc(-c2ccc3c(c2)[C@H](Nc2cnccn2)C[C@H](C)N3C(C)=O)cn1 [Example 152, (2S,4R)-1-Acetyl-2-methyl-6-{1-[2-(methylamino)ethyl]-1H-pyrazol-4-yl}-N-2-pyrazinyl-1,2,3,4-tetrahydro-4-quinolinamine hydrochloride] the IC50 was ≤ 10 µM. With CC(=O)N1c2ccc(-n3cnc(C)c3)cc2[C@@H](Nc2ccc(C#N)cn2)C[C@H]1C (racemic) [Example 159, 6-{[(cis)-1-acetyl-2-methyl-6-(4-methyl-1H-imidazol-1-yl)-1,2,3,4-tetrahydro-4-quinolinyl]amino}-3-pyridinecarbonitrile] the IC50 was ≤ 10 µM. In the case of CNCCn1cc(-c2ccc3c(c2)[C@H](Nc2cccc(C)n2)C[C@H](C)N3C(C)=O)cn1 [Example 147, (2S,4R)-1-Acetyl-2-methyl-6-{1-[2-(methylamino)ethyl]-1H-pyrazol-4-yl}-N-(6-methyl-2-pyridinyl)-1,2,3,4-tetrahydro-4-quinolinamine hydrochloride], the IC50 is reported as ≤ 10 µM. In the case of CNCCn1cc(-c2ccc3c(c2)[C@H](Nc2cc(F)ccn2)C[C@H](C)N3C(C)=O)cn1 [Example 156, (2S,4R)-1-Acetyl-N-(4-fluoro-2-pyridinyl)-2-methyl-6-{1-[2-(methylamino)ethyl]-1H-pyrazol-4-yl}-1,2,3,4-tetrahydro-4-quinolinamine hydrochloride], the IC50 is reported as ≤ 10 µM. With CC(=O)N1c2ccc(-n3cnc(C)c3)cc2[C@@H](Nc2ccc(C(=O)O)cn2)C[C@H]1C (racemic) [Example 143, 6-{[(cis)-1-acetyl-2-methyl-6-(4-methyl-1H-imidazol-1-yl)-1,2,3,4-tetrahydro-4-quinolinyl]amino}-3-pyridinecarboxylic acid] the IC50 was > 10 µM. In the case of CNCCn1cc(-c2ccc3c(c2)[C@H](Nc2cccc(F)n2)C[C@H](C)N3C(C)=O)cn1 [Example 151, (2S,4R)-1-Acetyl-N-(6-fluoro-2-pyridinyl)-2-methyl-6-{1-[2-(methylamino)ethyl]-1H-pyrazol-4-yl}-1,2,3,4-tetrahydro-4-quinolinamine hydrochloride], the IC50 is reported as ≤ 10 µM. With CNCCn1cc(-c2ccc3c(c2)[C@H](Nc2ncccc2F)C[C@H](C)N3C(C)=O)cn1 [Example 150, (2S,4R)-1-Acetyl-N-(3-fluoro-2-pyridinyl)-2-methyl-6-{1-[2-(methylamino)ethyl]-1H-pyrazol-4-yl}-1,2,3,4-tetrahydro-4-quinolinamine hydrochloride] the IC50 was ≤ 10 µM. For CNCCn1cc(-c2ccc3c(c2)[C@H](Nc2ccc(F)cn2)C[C@H](C)N3C(C)=O)cn1 [Example 154, (2S,4R)-1-Acetyl-N-(5-fluoro-2-pyridinyl)-2-methyl-6-{1-[2-(methylamino)ethyl]-1H-pyrazol-4-yl}-1,2,3,4-tetrahydro-4-quinolinamine hydrochloride], the IC50 was ≤ 10 µM. In the case of CNCCn1cc(-c2ccc3c(c2)[C@H](Nc2ccncc2)C[C@H](C)N3C(C)=O)cn1 [Example 130, (2S,4R)-1-Acetyl-2-methyl-6-{1-[2-(methylamino)ethyl]-1H-pyrazol-4-yl}-N-4-pyridinyl-1,2,3,4-tetrahydro-4-quinolinamine formate salt], the IC50 is reported as > 10 µM. CNCCn1cc(-c2ccc3c(c2)[C@H](Nc2cc(C)ccn2)C[C@H](C)N3C(C)=O)cn1 [Example 149, (2S,4R)-1-Acetyl-2-methyl-6-{1-[2-(methylamino)ethyl]-1H-pyrazol-4-yl}-N-(4-methyl-2-pyridinyl)-1,2,3,4-tetrahydro-4-quinolinamine hydrochloride] was tested, and the IC50 was ≤ 10 µM. In the case of CNCCn1cc(-c2ccc3c(c2)[C@H](Nc2ncccc2C)C[C@H](C)N3C(C)=O)cn1 [Example 148, (2S,4R)-1-Acetyl-2-methyl-6-{1-[2-(methylamino)ethyl]-1H-pyrazol-4-yl}-N-(3-methyl-2-pyridinyl)-1,2,3,4-tetrahydro-4-quinolinamine hydrochloride], the IC50 is reported as ≤ 10 µM.
